Experiment [1] deals with T1, Ephrin type-A receptor 3 (Homo sapiens) (UniProt P29320).
T1 sequence (whole entry): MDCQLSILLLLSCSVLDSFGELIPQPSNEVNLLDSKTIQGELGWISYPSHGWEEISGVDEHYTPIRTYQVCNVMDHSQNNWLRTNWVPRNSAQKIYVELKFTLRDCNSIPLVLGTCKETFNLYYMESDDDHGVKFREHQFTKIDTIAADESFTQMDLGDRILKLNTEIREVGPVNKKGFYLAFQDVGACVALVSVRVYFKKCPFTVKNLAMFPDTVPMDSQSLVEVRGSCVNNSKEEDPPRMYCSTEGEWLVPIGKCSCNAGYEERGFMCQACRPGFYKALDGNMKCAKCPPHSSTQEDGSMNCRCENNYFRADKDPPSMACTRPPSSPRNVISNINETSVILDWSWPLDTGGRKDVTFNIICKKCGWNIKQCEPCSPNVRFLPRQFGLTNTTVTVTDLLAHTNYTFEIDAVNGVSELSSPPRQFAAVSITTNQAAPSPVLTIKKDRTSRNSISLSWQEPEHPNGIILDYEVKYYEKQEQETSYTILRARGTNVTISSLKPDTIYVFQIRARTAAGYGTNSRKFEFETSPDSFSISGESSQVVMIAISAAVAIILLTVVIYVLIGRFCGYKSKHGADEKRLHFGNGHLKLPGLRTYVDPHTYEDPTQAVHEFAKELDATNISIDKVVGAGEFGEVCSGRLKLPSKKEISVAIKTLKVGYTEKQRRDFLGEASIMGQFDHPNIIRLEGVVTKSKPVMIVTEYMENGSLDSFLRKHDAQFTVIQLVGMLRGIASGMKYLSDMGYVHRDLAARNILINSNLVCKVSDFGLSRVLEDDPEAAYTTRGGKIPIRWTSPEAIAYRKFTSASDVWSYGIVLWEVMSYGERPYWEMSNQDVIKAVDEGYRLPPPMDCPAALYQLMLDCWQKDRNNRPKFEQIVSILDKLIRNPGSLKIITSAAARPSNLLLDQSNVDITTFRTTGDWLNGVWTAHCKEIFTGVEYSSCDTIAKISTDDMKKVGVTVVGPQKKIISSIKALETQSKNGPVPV
Description: Selectivity interaction (LanthaScreen Eu Kinase Binding Assay) EUB0001632a EPHA3. The settings on record: at 10 µM. On the technique in general: TR-FRET usually uses a lanthanide donor and a delayed reading to cut background.

Experiment [2] deals with Serine/threonine-protein kinase 25 (Homo sapiens) (UniProt O00506). Description: Selectivity interaction (ActivX KiNativ screen (ex vivo kinase selectivity in human PBMCs)) EUB0001619a STK25. In kind it is cell-based. The conditions noted are these: PBMC, at 1 µM.
Serine/threonine-protein kinase 25 (Homo sapiens), sequence (O00506 whole entry, looked up): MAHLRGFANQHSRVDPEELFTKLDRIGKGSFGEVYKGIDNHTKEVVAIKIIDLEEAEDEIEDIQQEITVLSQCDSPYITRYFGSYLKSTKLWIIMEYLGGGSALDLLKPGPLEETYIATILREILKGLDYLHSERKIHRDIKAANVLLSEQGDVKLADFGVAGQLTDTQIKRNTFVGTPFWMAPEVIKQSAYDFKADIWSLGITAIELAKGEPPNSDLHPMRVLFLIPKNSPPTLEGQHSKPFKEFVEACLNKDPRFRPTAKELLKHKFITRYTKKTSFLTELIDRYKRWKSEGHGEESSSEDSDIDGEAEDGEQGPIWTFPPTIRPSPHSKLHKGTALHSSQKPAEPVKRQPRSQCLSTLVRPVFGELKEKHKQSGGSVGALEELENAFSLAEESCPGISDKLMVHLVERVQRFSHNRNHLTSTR
Experiment [3] concerns the target T2, Serine/threonine-protein kinase tousled-like 1 (Homo sapiens) (UniProt Q9UKI8).
T2 sequence (whole entry): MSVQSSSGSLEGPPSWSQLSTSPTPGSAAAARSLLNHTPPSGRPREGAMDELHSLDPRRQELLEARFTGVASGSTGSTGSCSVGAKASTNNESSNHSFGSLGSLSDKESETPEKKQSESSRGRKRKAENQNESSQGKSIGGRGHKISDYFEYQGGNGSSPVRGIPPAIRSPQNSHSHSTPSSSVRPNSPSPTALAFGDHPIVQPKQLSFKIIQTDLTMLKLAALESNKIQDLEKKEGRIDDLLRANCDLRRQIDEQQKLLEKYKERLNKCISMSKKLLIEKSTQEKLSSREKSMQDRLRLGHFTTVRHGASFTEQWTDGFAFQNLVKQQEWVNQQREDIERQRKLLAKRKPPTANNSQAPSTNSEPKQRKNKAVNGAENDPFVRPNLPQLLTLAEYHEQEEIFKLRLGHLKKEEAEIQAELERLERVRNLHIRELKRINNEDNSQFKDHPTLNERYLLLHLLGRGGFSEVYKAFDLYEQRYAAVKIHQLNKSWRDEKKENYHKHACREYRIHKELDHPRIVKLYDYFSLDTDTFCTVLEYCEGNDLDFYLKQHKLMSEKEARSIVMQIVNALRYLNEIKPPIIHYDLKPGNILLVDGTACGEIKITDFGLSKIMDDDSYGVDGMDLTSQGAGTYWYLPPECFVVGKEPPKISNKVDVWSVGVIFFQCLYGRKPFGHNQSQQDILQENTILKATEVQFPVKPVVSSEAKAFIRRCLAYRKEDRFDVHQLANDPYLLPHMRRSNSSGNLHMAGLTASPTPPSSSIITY
Description: Selectivity interaction (KinomeScan (DiscoverX)) EUB0000695a TLK1. The conditions noted are these: at 100 nM.

Experiment [4] addresses Ribosomal protein S6 kinase alpha-2 (Homo sapiens) (UniProt Q15349). The experiment is described as follows: Selectivity interaction (KinomeScan (DiscoverX)) EUB0000607a RPS6KA2. The settings on record: at 10 µM.
The target in experiment [5] is T3, Serine/threonine-protein kinase Sgk3 (Homo sapiens) (UniProt Q96BR1).
T3 sequence (whole entry): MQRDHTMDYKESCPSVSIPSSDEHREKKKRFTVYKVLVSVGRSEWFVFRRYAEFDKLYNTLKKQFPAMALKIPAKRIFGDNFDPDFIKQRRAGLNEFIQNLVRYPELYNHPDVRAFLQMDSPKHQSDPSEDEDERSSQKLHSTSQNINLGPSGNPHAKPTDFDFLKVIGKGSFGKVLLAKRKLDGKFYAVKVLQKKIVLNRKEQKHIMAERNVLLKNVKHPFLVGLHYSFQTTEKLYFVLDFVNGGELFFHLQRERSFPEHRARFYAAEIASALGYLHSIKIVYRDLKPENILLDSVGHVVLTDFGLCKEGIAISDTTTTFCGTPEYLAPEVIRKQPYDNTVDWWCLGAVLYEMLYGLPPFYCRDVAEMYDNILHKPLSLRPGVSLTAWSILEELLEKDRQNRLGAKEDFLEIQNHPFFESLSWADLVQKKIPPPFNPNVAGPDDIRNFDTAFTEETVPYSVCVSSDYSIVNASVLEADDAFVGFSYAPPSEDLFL
Description: Selectivity interaction (ActivX KiNativ screen (kinase selectivity in THP-1 cell lysates)) EUB0000639a SGK3. Format: subcellular. The settings on record: lysate, at 0.2 µM.

Experiment [6] deals with MAP/microtubule affinity-regulating kinase 3 (Homo sapiens) (UniProt P27448). The experiment is described as follows: Selectivity interaction (Kinase panel (DSF assay)) EUB0001559a MARK3. (Differential scanning fluorimetry follows unfolding on heating by fluorescence.)
MAP/microtubule affinity-regulating kinase 3 (Homo sapiens), sequence (P27448 whole entry, looked up): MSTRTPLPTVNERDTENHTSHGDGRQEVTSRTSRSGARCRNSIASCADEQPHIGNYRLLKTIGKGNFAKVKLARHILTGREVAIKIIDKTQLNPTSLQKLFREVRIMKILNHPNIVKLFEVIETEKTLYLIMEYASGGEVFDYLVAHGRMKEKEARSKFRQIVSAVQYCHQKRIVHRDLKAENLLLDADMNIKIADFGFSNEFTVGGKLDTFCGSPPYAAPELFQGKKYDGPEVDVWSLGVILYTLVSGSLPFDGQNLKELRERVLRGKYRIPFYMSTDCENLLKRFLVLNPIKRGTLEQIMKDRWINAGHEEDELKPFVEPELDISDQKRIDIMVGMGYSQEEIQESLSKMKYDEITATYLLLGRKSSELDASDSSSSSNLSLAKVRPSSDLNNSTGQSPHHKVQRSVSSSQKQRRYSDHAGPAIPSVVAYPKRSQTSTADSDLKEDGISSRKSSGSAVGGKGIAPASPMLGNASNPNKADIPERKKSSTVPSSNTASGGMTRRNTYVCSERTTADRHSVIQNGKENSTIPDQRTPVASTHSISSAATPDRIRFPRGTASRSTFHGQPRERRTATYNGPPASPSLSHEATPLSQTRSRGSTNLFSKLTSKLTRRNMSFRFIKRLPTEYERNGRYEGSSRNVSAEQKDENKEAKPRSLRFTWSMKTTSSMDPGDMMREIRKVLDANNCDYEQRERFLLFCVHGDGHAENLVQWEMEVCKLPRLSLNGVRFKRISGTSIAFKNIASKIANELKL
Experiment [7] addresses Serine/threonine-protein kinase PLK1 (Homo sapiens, UniProt P53350). Description: Selectivity interaction (KinomeScan (DiscoverX)) EUB0001049a PLK1. The settings on record: at 1 µM.
For experiment [8], the target named is Receptor tyrosine-protein kinase erbB-3 (Homo sapiens) (UniProt P21860). The experiment is described as follows: Selectivity interaction (KinomeScan (DiscoverX)) EUB0000618a ERBB3. The conditions noted are these: at 10 µM.
Receptor tyrosine-protein kinase erbB-3 (Homo sapiens), sequence (P21860 whole entry): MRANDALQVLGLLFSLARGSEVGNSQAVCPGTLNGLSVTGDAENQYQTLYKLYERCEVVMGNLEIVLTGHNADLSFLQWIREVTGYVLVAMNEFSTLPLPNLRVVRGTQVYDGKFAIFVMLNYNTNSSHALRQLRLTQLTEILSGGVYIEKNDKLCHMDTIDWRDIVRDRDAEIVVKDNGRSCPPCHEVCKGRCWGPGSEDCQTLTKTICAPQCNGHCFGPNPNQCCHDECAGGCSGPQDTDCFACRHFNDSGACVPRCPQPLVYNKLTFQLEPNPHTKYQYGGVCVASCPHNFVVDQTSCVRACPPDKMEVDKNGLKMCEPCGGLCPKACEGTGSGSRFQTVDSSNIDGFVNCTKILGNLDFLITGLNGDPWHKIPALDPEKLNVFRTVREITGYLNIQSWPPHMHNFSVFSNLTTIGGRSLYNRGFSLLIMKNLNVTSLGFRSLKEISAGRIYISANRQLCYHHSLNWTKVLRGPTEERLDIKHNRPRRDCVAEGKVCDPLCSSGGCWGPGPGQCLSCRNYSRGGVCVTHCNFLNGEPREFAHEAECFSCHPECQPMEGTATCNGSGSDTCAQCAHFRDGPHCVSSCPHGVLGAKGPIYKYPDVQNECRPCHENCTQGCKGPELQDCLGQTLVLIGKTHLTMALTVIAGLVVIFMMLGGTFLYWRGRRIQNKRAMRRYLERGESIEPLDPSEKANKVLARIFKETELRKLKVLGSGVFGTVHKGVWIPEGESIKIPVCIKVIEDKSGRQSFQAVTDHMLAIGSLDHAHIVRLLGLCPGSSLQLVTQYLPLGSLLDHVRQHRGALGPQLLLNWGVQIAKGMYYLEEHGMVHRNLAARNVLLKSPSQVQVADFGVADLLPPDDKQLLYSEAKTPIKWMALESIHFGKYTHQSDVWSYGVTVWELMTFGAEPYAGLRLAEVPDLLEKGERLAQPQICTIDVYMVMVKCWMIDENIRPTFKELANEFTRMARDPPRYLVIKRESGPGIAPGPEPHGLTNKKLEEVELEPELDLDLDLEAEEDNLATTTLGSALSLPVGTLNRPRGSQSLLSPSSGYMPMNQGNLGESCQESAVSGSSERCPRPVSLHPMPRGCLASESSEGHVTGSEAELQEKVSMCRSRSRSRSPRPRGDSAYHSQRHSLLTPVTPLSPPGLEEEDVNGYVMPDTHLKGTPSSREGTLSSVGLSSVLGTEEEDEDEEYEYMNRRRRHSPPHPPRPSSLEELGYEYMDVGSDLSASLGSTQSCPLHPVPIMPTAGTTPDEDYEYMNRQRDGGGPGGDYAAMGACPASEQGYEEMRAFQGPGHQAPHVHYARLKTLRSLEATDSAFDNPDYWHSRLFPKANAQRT
For experiment [9], the target named is Acetylcholine receptor subunit alpha (Homo sapiens, UniProt P02708). Description: Selectivity interaction (Panel of kinases, GPCRs, ion channels and transporters (enzymatic assay)) EUB0000266bCl CHRNA1.
Acetylcholine receptor subunit alpha, sequence (P02708 whole entry): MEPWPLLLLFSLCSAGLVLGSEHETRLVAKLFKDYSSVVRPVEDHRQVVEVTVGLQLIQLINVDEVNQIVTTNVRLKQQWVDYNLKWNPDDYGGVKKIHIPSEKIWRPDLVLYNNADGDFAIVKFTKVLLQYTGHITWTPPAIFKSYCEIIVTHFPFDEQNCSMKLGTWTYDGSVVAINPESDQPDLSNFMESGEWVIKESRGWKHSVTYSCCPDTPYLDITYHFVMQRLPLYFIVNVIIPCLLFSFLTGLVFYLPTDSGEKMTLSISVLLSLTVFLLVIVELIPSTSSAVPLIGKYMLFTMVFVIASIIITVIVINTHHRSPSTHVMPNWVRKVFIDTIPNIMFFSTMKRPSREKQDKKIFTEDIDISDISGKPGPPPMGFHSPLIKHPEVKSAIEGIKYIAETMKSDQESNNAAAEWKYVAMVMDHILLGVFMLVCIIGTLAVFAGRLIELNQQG
The target of experiment [10] is Serine/threonine-protein kinase SIK3 (Homo sapiens) (UniProt Q9Y2K2). Description: Selectivity interaction (KinomeScan (DiscoverX)) EUB0000229b SIK3. The conditions noted are these: at 10 µM.
Serine/threonine-protein kinase SIK3 (Homo sapiens), sequence (Q9Y2K2 whole entry, looked up): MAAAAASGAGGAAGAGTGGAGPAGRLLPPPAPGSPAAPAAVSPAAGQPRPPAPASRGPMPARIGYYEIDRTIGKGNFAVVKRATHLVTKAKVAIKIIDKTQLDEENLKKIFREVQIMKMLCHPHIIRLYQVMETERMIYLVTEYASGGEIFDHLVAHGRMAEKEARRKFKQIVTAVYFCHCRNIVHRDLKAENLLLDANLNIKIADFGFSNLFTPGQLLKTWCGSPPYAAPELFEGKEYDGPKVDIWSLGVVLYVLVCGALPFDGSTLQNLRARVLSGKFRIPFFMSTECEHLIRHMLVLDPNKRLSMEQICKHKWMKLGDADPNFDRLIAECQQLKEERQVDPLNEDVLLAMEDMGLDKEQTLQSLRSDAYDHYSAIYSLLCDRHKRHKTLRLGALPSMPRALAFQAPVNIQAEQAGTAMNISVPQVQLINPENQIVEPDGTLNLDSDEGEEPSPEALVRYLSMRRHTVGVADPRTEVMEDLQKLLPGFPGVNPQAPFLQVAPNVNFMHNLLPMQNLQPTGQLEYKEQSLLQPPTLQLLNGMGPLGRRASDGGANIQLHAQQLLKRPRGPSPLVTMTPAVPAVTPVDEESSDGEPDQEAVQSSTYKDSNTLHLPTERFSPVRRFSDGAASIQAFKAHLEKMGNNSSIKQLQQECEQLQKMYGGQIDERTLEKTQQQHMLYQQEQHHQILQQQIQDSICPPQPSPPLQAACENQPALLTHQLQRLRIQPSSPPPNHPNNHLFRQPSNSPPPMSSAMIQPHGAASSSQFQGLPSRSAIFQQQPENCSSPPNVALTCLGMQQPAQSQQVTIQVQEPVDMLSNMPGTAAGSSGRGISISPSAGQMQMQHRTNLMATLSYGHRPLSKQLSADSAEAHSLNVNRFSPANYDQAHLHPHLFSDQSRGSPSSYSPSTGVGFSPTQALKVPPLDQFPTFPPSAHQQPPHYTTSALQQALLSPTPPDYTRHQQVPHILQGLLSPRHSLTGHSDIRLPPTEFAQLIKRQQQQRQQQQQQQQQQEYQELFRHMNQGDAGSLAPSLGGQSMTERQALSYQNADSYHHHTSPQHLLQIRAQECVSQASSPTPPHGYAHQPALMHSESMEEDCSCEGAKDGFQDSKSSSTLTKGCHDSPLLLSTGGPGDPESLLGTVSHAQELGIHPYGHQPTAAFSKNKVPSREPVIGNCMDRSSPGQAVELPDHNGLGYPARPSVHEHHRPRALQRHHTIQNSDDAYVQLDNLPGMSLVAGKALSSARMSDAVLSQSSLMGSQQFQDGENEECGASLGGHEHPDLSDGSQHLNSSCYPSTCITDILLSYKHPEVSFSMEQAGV

Serine/threonine-protein kinase PLK1, sequence (P53350 whole entry): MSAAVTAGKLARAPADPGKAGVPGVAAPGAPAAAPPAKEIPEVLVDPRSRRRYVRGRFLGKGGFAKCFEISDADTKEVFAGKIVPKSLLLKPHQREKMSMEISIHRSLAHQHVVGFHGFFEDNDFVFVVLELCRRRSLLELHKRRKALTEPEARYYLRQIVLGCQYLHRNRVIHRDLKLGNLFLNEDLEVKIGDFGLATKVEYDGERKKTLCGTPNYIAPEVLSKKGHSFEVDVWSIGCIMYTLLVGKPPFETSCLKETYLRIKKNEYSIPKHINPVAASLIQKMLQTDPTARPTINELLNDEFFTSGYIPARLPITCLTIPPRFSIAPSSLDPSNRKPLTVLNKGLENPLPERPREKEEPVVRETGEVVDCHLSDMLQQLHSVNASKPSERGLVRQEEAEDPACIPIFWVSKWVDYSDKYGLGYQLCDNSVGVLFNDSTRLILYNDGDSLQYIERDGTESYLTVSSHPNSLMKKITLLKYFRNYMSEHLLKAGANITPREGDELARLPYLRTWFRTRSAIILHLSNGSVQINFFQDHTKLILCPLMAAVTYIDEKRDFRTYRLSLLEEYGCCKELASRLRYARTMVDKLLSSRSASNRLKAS

As to `Cn1cc(-n2cnc3c(NCc4nc5cc(Cl)c(Cl)cc5[nH]4)nc(N4CCOCC4)nc32)cn1`, in experiment [1], the % of inhibition was -19.5%. As to `N#Cc1cccc(-c2c[nH]c3ncnc(N4CCOCC4)c23)c1`, the % of inhibition in experiment [2] is 65%. On to `Cc1cc(F)c(C(=O)Nc2cccc(-c3nncn3C(C)C)n2)cc1-n1cnc(C2CC2)c1`, for which the % of control in [3] worked out at 88%. In the case of `CNC(=O)Nc1ccc(-c2nc(N3CC4CCC(C3)O4)c3cnn(C4CCC5(CC4)OCCO5)c3n2)cc1`, in experiment [4], the % of control was 93%. With `CC[C@@H]1[C@H](F)C(=O)N[C@@H]1COc1nccc2cc(C(N)=O)c(OC)cc12` [ZIMLOVISERTIB], in experiment [5], the % of inhibition was -5.7%. In [6], `CN(C(=O)c1cnn2cccnc12)c1cc2c(cc1N1CCOCC1)C(=O)N(C[C@@H](F)C(C)(C)O)C2` displayed a dTM of 0.7 K.

For `COc1cc(Nc2nc(C)cc(-c3cnn4nc(OC)ccc34)n2)cc(C(F)(F)F)c1`, the % of control in experiment [7] turned out to be 87%. As for `O[C@H]1CC[C@H](Nc2ncc3nc(Nc4c(F)cc(F)cc4F)n([C@H]4CCOC4)c3n2)CC1`, in experiment [8], the % of control was determined as 4.6%.

Regarding `CCn1c(-c2nc3cc(C(=O)N4CCCC(N)C4)ccc3n2C)cc2ccccc21` (stereo not given), the pXC50 in [9] was below 4.3 M. In [10], `COc1cc(N(C)c2ccnc3ccc(C(F)(F)F)cc23)cc(OC)c1OC` came in with a % binding of 74%.
